Measured values taken from patent US8088819B2, “Derivatives of substituted 3-phenyl-1-(phenylthienyl)propan-1-ones and of 3-phenyl-1-(phenylfuranyl) propan-1-ones, preparation and use” (priority 2006, dated 2012).

What was measured:
Assay type in all cases: in vivo
[1] = test system: target genes of the PPARs; assay: Expression of target genes of the PPARs in hepatic and muscle tissues of the db/db mouse, quantitative RT-PCR; conditions: db/db mice; 50 mpk; 28 days
Description: The efficacy of the compound according to the invention is also evaluated by measuring, in the hepatic and muscle tissues, the expression of genes involved in carbohydrate and lipid metabolism, and the dissipation of energy. The levels of expression of each gene are normalized relative to the level of expression of the reference genes 36B4 in the liver and 18S in the skeletal muscle. The induction factor, i.e. the ratio of the relative signal (induced by the compound according to the invention) to the mean of the relative values of the control group, is then calculated. The higher this factor, the greater the gene expression activating character of the compound. The final result is represented as the mean of the induction values in each experimental group.
(§1) Female db/db mice were kept under a cycle of light and darkness of 12/12 hours at a constant temperature of 20±3° C. After acclimation for one week, the mice were weighed and put in groups of 8 animals selected so that the distribution of their body weight and of their plasma lipid levels, determined for the first time before the experiment, are uniform. The test compounds were suspended in carboxymethylcellulose (Sigma C4888) and administered by intragastric force feeding, at a rate of once per day for 28 days at the chosen dose. The animals had free access to water and to food (standard diet). The food intake and the weight gain are recorded throughout the experiment. At the end of the experiment, the animals were anesthetized after fasting for 4 hours, a blood sample was taken using anticoagulant (EDTA), then the mice were weighed and euthanased. The plasma was separated by centrifugation at 3000 rev/min for 20 minutes, and the samples were stored at +4° C.
Samples of hepatic and muscle tissues were taken and frozen immediately in liquid nitrogen and then stored at −80° C. for later analyses. […]
1 μg of total RNA (quantified by UV spectrophotometry) was then reverse-transcribed to complementary DNA by reaction for 1 hour at 37° C. in a total volume of 30 μl containing buffer 1× (Invitrogen), 1.5 mM of DTT, 0.18 mM of dNTPs (Promega), 200 ng of pdN6 (Amersham), 30 U of RNase inhibitor (Promega) and 1 μl of MMLV-RT (Invitrogen).
The quantitative PCR experiments were carried out using the MyiQ Single-Color Real-Time PCR Detection System (Biorad, Marnes-la-Coquette, France) and were performed using the iQ SYBR Green Supermix kit following the supplier's recommendations, in 96-well plates, on 5 μL of diluted reverse-transcription reaction mixture with a hybridization temperature of 60° C. […]
The amount of fluorescence emitted is directly proportional to the amount of complementary DNA present at the start of the reaction and amplified during PCR. […] The relative expression levels of each target are thus determined using the efficacy curves obtained with the points in the range.
The levels of expression of the genes of interest were then normalized, […] relative to the level of expression of the reference gene 36B4 (whose specific primers are: sense primer: 5′-[…]-3′ (SEQ ID No. 19) and antisense primer: 5′-[…]-3′ (SEQ ID No. 20)), and in the muscle tissue relative to the level of expression of the reference gene 18S (whose specific primers are: sense primer: 5′-[…]-3′ (SEQ ID No. 21) and antisense primer: 5′-[…]-3′ (SEQ ID No. 22)). The induction factor was calculated for each sample. […]

[2] = test system: db/db mouse; assay: Plasma triglycerides and insulinemia in the db/db mouse; conditions: 50 mpk oral, 28 days
Description: The effect of the compounds according to the invention is evaluated in vivo in the db/db mouse by measuring the plasma triglycerides and insulinemia after 28 days of treatment with compound 2 by the oral route. These levels are compared with those obtained with control animals (not treated with the compound according to the invention). The measured difference provides evidence of the antilipemic effect and effect on insulin resistance of the compound according to the invention.
as §1, with “At the end of the experiment, the animals were anesthetized after fasting for 4 hours, a blood sample was taken using anticoagulant (EDTA), then the mice were weighed and euthanased. The plasma was separated by centrifugation at 3000 rev/min for 20 minutes, and the samples were stored at +4° C.” left out
The plasma concentrations of triglycerides were measured by enzyme assays (bioMérieux-Lyon-France) following the supplier's recommendations. […]

[3] = test system: C57Bl6 mouse; assay: Plasma lipid assays in the C57Bl6 mouse, compound 2 at dose effect
Description: The effect of compound 2, administered at dose effect, is evaluated in vivo in the C57Bl6 mouse after 14 days of treatment by the oral route. At the end of the treatment, the antilipemic effect of compound 2 is evaluated by measuring the plasma levels of total cholesterol, of HDL-cholesterol, of triglycerides and of free fatty acids.
Female C57Bl6 mice were kept under a cycle of light and darkness of 12/12 hours at a constant temperature of 20±3° C. After acclimation for one week, the mice were weighed and put into groups of 6 animals selected so that the distribution of their body weight, of their plasma lipid levels and of total cholesterol determined for the first time before the experiment, is uniform. The test compounds were suspended in carboxymethylcellulose (Sigma C4888) and administered by intragastric force feeding, at a rate of once per day for 14 days at the chosen dose. The animals had free access to water and to food (standard diet). At the end of the experiment, the animals were anesthetized after fasting for 4 hours. A blood sample was taken using anticoagulant (EDTA), then the mice were weighed and euthanased. The plasma was separated by centrifugation at 3000 rev/min for 20 minutes, and the samples were stored at +4° C.
Plasma concentrations of total cholesterol and of triglycerides were measured by enzyme assays (bioMérieux-Lyon-France) following the supplier's recommendations.
Low-density lipoproteins (VLDL and LDL) were precipitated with phosphotungstate. The precipitate was removed by centrifugation. The HDL-cholesterol present in the supernatant was quantified by enzyme assays (bioMérieux-Lyon-France) following the supplier's recommendations.
Plasma concentrations of free fatty acids were measured by enzyme assays (WACO chemicals) following the supplier's recommendations.

## CC(C)(Oc1ccc(CCC(=O)c2ccc(-c3ccc(C(F)(F)F)cc3)s2)c(Cl)c1Cl)C(=O)O [Compound 2, 2-(2,3-dichloro-4-(3-oxo-3-(5-(4-(trifluoromethyl)phenyl)thien-2-yl)propyl)phenoxy)-2-methylpropanoic acid]
[1]
  expression of the gene coding for ACOX1 in the liver: significant increase
  expression of the gene coding for CPT1b in the skeletal muscle: significant increase
  expression of the gene coding for PDK4 in the liver: significant increase
  expression of the gene coding for PDK4 in the skeletal muscle: significant increase
  expression of the gene coding for UCP2 in the skeletal muscle: significant increase
[2]
  insulinemia (plasma levels of insulin): lowered significantly
  plasma triglyceride level: lowered significantly
[3]; C57Bl6 mice treated for 14 days
  lipid profile: improves
[3]; C57Bl6 mouse, 14 days oral, 1, 5, 10 and 50 mpk, significant effect at 50 mpk
  plasma triglyceride levels: dose-dependent decrease
[3]; C57Bl6 mouse, 14 days oral, at 5 and 50 mpk (tested 1, 5, 10 and 50 mpk)
  plasma total cholesterol levels: significantly increased
[3]; C57Bl6 mouse, 14 days oral, dose-dependent manner starting from 1 mpk
  plasma HDL-cholesterol levels: significantly increased
[3]; C57Bl6 mouse, 14 days oral, starting from 10 mpk
  plasma levels of free fatty acids: lowered significantly
